Results on two compounds are retold here after publication PMC11766273, “Design, Synthesis, Anticancer Screening, and Mechanistic Study of Spiro-N-(4-sulfamoyl-phenyl)-1,3,4-thiadiazole-2-carboxamide Derivatives” (International Journal of Molecular Sciences, 2025).

By Ki is commonly meant a dissociation constant, usually derived from enzyme kinetics or from competition with a known ligand. As usually defined, the IC50 is the concentration needed to halve the response being measured. For orientation: viability means the share of living cells, or the viability signal relative to a control. A higher viability goes with better survival.

Data set [1] addresses hCA XII (Homo sapiens, UniProt O43570). Also noted: method as in PMID 35671645, PMID 37577088, PMID 30978604, PMID 37776683. The conditions noted are these: printed in Figure 1 for reported compounds; cited from earlier work.
The target in data set [2] is hCA IX (Homo sapiens, UniProt Q16790). Also noted: method as in PMID 35671645, PMID 37577088, PMID 30978604, PMID 37776683. The note with it: printed in Figure 1 for reported compounds; cited from earlier work.
Data set [3] concerns melanoma LOX IMVI cancer cell line. In words: MTT cell viability assay. The note with it: for % viability: LOXIMVI. A general note: Formazan colour is commonly taken as a measure of viable cells.
Protocol: (§1) The growth percentage was calculated at different drug concentration
levels and at different times.
(§2) and WI 38 cell lines was determined utilizing established MTT test procedures.
(§3) All cell lines utilized were acquired from the Vacsera Cell Culture Library, Tissue
(§4) Culture Unit, Cairo, Egypt, with ATCC provenance.
(§5) concentrations that inhibited 50% of cell growth were tested three times, and the mean
(§6) was computed. Cells were grown in DMEM (Invitrogen/Life Technologies) augmented
(§7) with 10% FBS (Hyclone), 10 mg/ml of insulin (Sigma), and 1% penicillin-streptomycin.
(§8) Seed cells (density 1.2–1.8×10,000 cells/well) in 100 mL of complete growth medium and
(§9) 100 mL of the tested chemical per well in a 96-well plate for 24 h before the MTT testing.
(§10) In a standard experiment, 100 mL of serially diluted sterile testing substances were
(§11) introduced to achieve final concentrations ranging from 0.01 to 100 mM, utilizing
(§12) growth media as a negative control. Following 24 h of culture incubation, the
(§13) supernatants were discarded. The LOX IMVI, HT29, and RXF393 cell lines were
(§14) subjected to trypsinization and rinsed with calcium/magnesium-free PBS (pH 7.2). We
(§15) transferred cultures from the incubator to a laminar flow hood or sterile workspace.
(§16) Each test must incorporate a blank, providing complete media
(§17) balanced salt solution devoid of phenol red and serum. Incorporate reconstituted MTT
(§18) at a volume constituting 10% of the culture medium—re-incubate cultures for 2 to 4 h,
(§19) contingent upon cell type and optimal cell density. Upon completion of the incubation
(§20) period, the cultures from the incubator are extracted, and the resultant formazan
(§21) crystals are dissolved by adding an equivalent volume of MTT Solubilization Solution
Absorbance was spectrophotometrically
(§22) measured at a wavelength of 570 nm. Quantify the background absorbance of multi-
(§23) well plates at 690 nm and deduct this value from the data at 450 nm. Data from all
(§24) experiments were documented, and the viability percentage of cells was computed.
Data set [4] relates to RXF393 cells. In words: Cell cycle analysis (propidium iodide flow cytometry). The conditions noted are these: RXF393 treated at IC50. A general note: A flow cytometer gives signals particle by particle.
Protocol: The impact of the target compound on cell cycle progression in the RXF393 cancer cell line was evaluated against doxorubicin as a positive control and untreated RXF393 as a negative control, utilizing a flow cytometry assay.
was assessed utilizing the Propidium Iodide Flow Cytometry Kit to quantify DNA
content following established protocols.
RXF393 cells were treated with the IC50 concentration of the target compound
For data set [5], the system named is renal RXF393 cancer cell line. In words: MTT cell viability assay. The note with it: for % viability: rxf393.
Protocol: as §1
levels and at different times.
as §2, §3, §4, §5, §6, §7, §8, §9, §10, §11, §12, §13, §14, §15, §16, §17, §18, §19, §20, §21
Absorbance was spectrophotometrically
as §22, §23, §24
Data set [6] concerns renal RXF393 cell line. In words: Apoptosis assay (Annexin V-FITC/PI). The format is cell-based, human. The conditions noted are these: RXF393 treated at IC50.
In data set [7] the test system is colon HT29 cancer cell line. In words: MTT cell viability assay.
Protocol: as §1
levels and at different times.
as §2, §3, §4, §5, §6, §7, §8, §9, §10, §11, §12, §13, §14, §15, §16, §17, §18, §19, §20, §21
Absorbance was spectrophotometrically
as §22, §23, §24
Data set [8] is described as follows: in vitro. The conditions noted are these: human, WI 38 normal cells.
Protocol: as §1
levels and at different times.
as §2, §3, §4, §5, §6, §7, §8, §9, §10, §11, §12, §13, §14, §15, §16, §17, §18, §19, §20, §21
Absorbance was spectrophotometrically
as §22, §23, §24

Sequence of hCA XII (O43570 25-354): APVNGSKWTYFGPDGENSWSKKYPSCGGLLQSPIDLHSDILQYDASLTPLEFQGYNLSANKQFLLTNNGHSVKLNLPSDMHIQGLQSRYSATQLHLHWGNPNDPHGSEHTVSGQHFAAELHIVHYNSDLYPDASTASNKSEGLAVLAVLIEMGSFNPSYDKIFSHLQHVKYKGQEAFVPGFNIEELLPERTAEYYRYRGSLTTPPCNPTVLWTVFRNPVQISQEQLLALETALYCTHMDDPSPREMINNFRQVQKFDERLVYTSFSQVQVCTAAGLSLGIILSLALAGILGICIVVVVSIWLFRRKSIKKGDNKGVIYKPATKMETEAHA

With `NS(=O)(=O)c1ccc(NC(=O)Nc2ncc(-c3ccc(F)cc3)s2)cc1` [Compound I], the inhibition constant (Ki) in data set [1] is 0.0276 µM; in data set [2] it was 0.0136 µM.

`COc1cccc2c1C(=O)c1c(O)c3c(c(O)c1C2=O)C[C@@](O)(C(=O)CO)C[C@@H]3O[C@H]1C[C@H](N)[C@H](O)[C@H](C)O1` [Doxorubicin, doxorubicin, reference compound]: the half-maximal inhibitory concentration (IC50) in data set [3] (LOX IMVI) came to 6.08 ± 0.32 µM; in data set [5] (RXF393, MTT), 13.5 ± 0.82 µM; in data set [7] (HT29), 13.5 ± 0.71 µM. For the same compound, the “% viability” value in data set [3] (0.4uM) was 69.98%; in data set [3] (1.6uM), 58.61%; in data set [3] (6.3uM), 49.41%; in data set [3] (25uM), 41.5165%; in data set [3] (100uM), 29.521%; in data set [5] (0.4ug, MTT), 78.52%. In addition, the “% viability” value in data set [5] (1.6ug, MTT) is listed as 69.673%; in data set [5] (6.25ug, MTT), 54.451%; in data set [5] (25ug, MTT) it was 43.883%; in data set [5] (100ug, MTT), 34.98%; in data set [7] (HT-29, 0.4uM), 79.36%; in data set [7] (HT-29, 1.6uM) it was 68.43%. Moreover, the “% viability” value in data set [7] (HT-29, 6.3uM) is 57.377%; in data set [7] (HT-29, 25uM), 45.5981%; in data set [7] (HT-29, 100uM), 31.937%. Moreover, the “DNA Content %G2/M” value in data set [4] (DMSO control 19.51) was determined as 11.01%. For the same compound, the “DNA Content %S” value in data set [4] (DMSO control 28.54) is recorded as 16.81%. For the same compound, the “DNA Content %G0-G1” value in data set [4] (DMSO control 51.95) is reported as 72.18%. Also, in data set [5] (RXF 393, Table S2), the “Cytotoxicity IC50 SD” value was 13.54 ± 0.82 mg/L. The “Apoptosis Late” value in data set [6] (DMSO control 0.18) was found to be 17.36%. Further, in data set [6] (DMSO control 0.42), the “Apoptosis Early” value came out at 12.64%. In data set [6] (DMSO control 1.16), this compound registered a Necrosis of 9.02%. Further, in data set [8], the IC50 at 24 h came out at 18.1 ± 0.59 µM. In data set [8], this compound displayed a viability at 24 h, 0.4 µM of 74.5%. Besides, in data set [8], the viability at 24 h, 1.6 µM came to 63.2%. For the same compound, in data set [8], the viability at 24 h, 6.3 µM was 52.4%. The same compound yielded a viability at 24 h, 25 µM in data set [8] of 46.6%. In addition, the viability at 24 h, 100 µM in data set [8] is 38.4%.
